Results from US8101389B2, “Bacterial glutamine synthetases and methods of use” (Athenix Corp, priority 2006, dated 2012).

Columns and labels:
[1] = test system: Serratia marcescens ATX 20345; assay: growth of strain ATX 20345 in glufosinate; assay type: cell-based; details: minimal medium; growth above 50 mM was not tested
Method: A glufosinate resistant bacterial strain (ATX 20345) was isolated from a soil sample via a soil suspension by placing approximately 0.01 grams soil in 500 μl sterile water. The soil suspension was vortexed, and 20 μl was used to inoculate a 2.5 ml minimal medium culture supplemented with 5 mM glufosinate (Riedel-de Habël, available through Sigma-Aldrich, St. Louis, Mo.). The minimal medium contains the following ingredients (per 1 liter): 10 grams sucrose, 1 ml 0.8M MgSO4, 1 ml 0.1M CaCl2, 1 ml trace elements, 2.38 grams KH2PO4, 5.64 grams K2HPO4. The pH is adjusted to 7.0, and the solution is sterilized with a 0.2 μm filter. Trace elements consist of (per 100 ml) 0.1 g FeSO4.7H2O, 0.5 mg CuSO4.5H2O, 1.0 mg H3BO3, 1.0 mg MnSO4.5H2O, 7.0 mg ZnSO4.7H2O, 1.0 mg MoO3, 4.0 g KCl. No additional nitrogen source was provided in the medium. Cultures were grown at 21° C. on a rotary shaker for 3 days then transferred to fresh minimal medium containing 5 mM glufosinate and incubated at 21° C. After 2 days, the cultures were used to inoculate fresh minimal medium with 5 mM glufosinate. After 2 days, the cultures were plated onto Luria Bertani (LB) agar and then restruck for isolation. […] Colonies on LB agar are pinkish-red, raised, circular, and 1-2 mm in diameter. ATX20345 was typed by fatty acid analysis (as known in the art), and determined to be a strain of Serratia marcescens. […]

[2] = test system: E. coli DH5α cells with TKH2; assay: growth of DH5α with TKH2 on M63 minimal plates with glufosinate; assay type: cell-based; details: 20 mM glufosinate
Method: (§1) To obtain the gene(s) responsible for the strain's resistance to glufosinate, a small insert plasmid genomic library was prepared from strain ATX 20345. Genomic DNA was extracted from a fresh, overnight LB culture using SDS, proteinase K cell lysis followed by CTAB/NaCl, phenol-chloroform extractions. Partial digests were performed on the genomic DNA using 0.1 units Sau3A I at 37° C. for 30 minutes followed by the addition of EDTA and incubation at 65° C. for 20 minutes to halt the reaction. Resultant DNA was approximately 4-12 kb in size. The DNA was gel purified, treated with T4 polynucletide kinase, then ligated into BamH I digested pUC18 vector. Ligations were transformed into DH5a and plated directly on M63 minimal media plates containing 20 mM glufosinate, 100 μg/ml carbenicillin, and 0.1 mM IPTG. After several days, 4 colonies had appeared, tentatively named TKH1-4. They were grown up and plasmid DNA was isolated and analyzed by digestion with EcoR I+ Hind III, and Pst I/Sac Ito compare inserts. Though all four clones contained inserts, TKH2 and TKH3 were identical by restriction digest analysis, and both contained inserts of approximately 4.9 kb.
(§2) To reconfirm that TKH2 and TKH3 confer resistance to 20 mM glufosinate, the purified plasmids were retransformed into DH5α cells. pUC18 was retransformed as a negative control. […]

[3] = test system: E. coli DH5α cells with TKH3; assay: growth of DH5α with TKH3 on M63 minimal plates with glufosinate; assay type: cell-based; details: 20 mM glufosinate
Method: as §1, §2

[4] = test system: E. coli cells with AGS1 variant AGS1m7 (pAX3431), G168C, V214M, K395R, SEQ ID NO:14; assay: growth of E. coli on glufosinate plates, ags1m7; assay type: cell-based; details: 2, 10, 20, 50, and 100 mM; DH5a; Clone 10
Method: Mutants of the bacterial glutamine synthetase gene ags1 (SEQ ID NO:1) were created by error-prone mutagenesis using the GENEMORPH® Random Mutagenesis kit, and also using oligo-directed mutagenesis as known in the art. However, many methods are available for creating libraries of mutants. The resulting mutants were cloned into a pUC19 vector, electroporated into either XL-1 or DH5 alpha E. coli cells, and selected for growth on M63+ agar media containing antibiotic and 2, 10, or 20 mM glufosinate. Twenty-two clones were identified as growing on 20 mM glufosinate, and picked for further analysis.

[5] = test system: E. coli cells with AGS1 variant AGS1m19, F81S, P185S, H212S, V214A, G218S, I303N, SEQ ID NO:38; assay: growth of E. coli on glufosinate plates, ags1m19; assay type: cell-based
Method: (§3) Clones expressing AGS1m17, AGS1m18, AGS1m19, or AGS1m20 were all found to be able to grow on plates containing 375 mM glufosinate, whereas no growth of clones expressing AGS1m16 was observed on plates containing 375 mM glufosinate.

[6] = test system: E. coli cells with AGS1 variant AGS1m16 (pAX3439), F81S, P185S, H212N, G218S, I303N, SEQ ID NO:32; assay: growth of E. coli on glufosinate plates, ags1m16; assay type: cell-based
Method: ags1m2 was mutagenized by error-prone mutagenesis using GENEMORPH® II Random Mutagenesis kit (Stratagene) according to manufacturer's instructions. Mutagenized PCR product was digested with Sac I and Hind III, and ligated into a pUC vector, similarly digested with Sac I and Hind III. Ligations were transformed into E. coli cells, and plated onto M63+ plates containing antibiotic, and 125 mM glufosinate. Clones growing on 125 mM glufosinate plates were retested on 200 mM glufosinate plates, and compared to similar platings of ags1m1 and ags1m2. […] The DNA sequence of the ags open reading frame in pAX3439 was sequenced, and the gene designated as ags1m16. The DNA sequence of ags1m16 is represented herein as SEQ ID NO:31, and the amino acid sequence is represented herein as SEQ ID NO:32. AGS1m16 differs from AGS1m2 at a single amino acid at position H212 of the protein, which is modified from Histidine (‘H’) to Asparagine (‘N’), and contains a total of five amino acid changes relative to the wild-type AGS1 (see FIG. 1 and Table 3).
as §3

[7] = biological target: Serratia marcescens glutamine synthetase AGS1 variant AGS1m21, N160S, G167R, V214M, SEQ ID NO:42 (Serratia marcescens, UniProt A0A0F6KS08, G167R/N160S/V214M); assay: enzymatic assay, kinetics of AGS1m21; assay type: biochemical
Text: ags1m21 (SEQ ID NO:41) encodes the AGS1m21 protein (SEQ ID NO:42). AGS1m21 is a variant of AGS1 that contains a similar amino acid change identified in other variants (V214M), as well as two novel mutations (N160S and G167R). This enzyme was expressed in E. coli, purified, and the kinetic values Km(glutamate) and Ki(glufosinate) of the variant measured by enzymatic assay.

Sequence of Serratia marcescens glutamine synthetase AGS1 variant AGS1m21, N160S, G167R, V214M, SEQ ID NO:42 (A0A0F6KS08 whole entry N160S/G167R/V214M): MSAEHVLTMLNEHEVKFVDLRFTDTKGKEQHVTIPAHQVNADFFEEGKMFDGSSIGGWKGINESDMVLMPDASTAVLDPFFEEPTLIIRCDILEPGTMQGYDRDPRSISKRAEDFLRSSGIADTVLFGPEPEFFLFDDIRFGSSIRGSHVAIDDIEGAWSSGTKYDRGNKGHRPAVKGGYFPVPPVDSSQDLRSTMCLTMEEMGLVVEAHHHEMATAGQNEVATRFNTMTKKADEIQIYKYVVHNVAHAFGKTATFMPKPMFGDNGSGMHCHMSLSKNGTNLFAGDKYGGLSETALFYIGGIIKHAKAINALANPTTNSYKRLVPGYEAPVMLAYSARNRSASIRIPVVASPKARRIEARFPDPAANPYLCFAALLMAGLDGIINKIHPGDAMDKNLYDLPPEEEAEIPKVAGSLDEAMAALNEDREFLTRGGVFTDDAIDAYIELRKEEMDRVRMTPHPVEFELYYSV

Q: With `CP(=O)(O)CCC(N)C(=O)O` (stereo not drawn) [glufosinate] as the molecule, how does the “glufosinate concentration through which ATX 20345 grows well” value [1] read?
A: ≥ 50 mM

Q: And the “growth in the presence of glufosinate” value [2]?
A: grew in the presence of glufosinate

Q: And the “growth in the presence of glufosinate” value [3]?
A: grew in the presence of glufosinate

Q: What about the “growth on glufosinate minimal M63+ agar media” value [4] of the same molecule?
A: shown to grow

Q: What about the “growth on plates containing 375 mM glufosinate” value [5] of the same molecule?
A: able to grow

Q: What about the “growth on 200 mM glufosinate plates” value ([6]; 200 mM glufosinate) of the same molecule?
A: ability to grow

Q: And the “growth on plates containing 375 mM glufosinate” value ([6]; 375 mM glufosinate)?
A: no growth

Q: And the “glufosinate concentrations up to which cells are able to grow” value ([6]; cells containing AGS1m16)?
A: 200 mM

Q: What about the Ki [7] of the same molecule?
A: 2 mM
